From patent US11484032B2, “Compositions for inhibition of insect sensing” (Vanderbilt University, priority 2011, dated 2022)

What follows are compounds tested against T1, AgORco+AgOR48 (Anopheles gambiae, UniProt Q7QCC7) (assay: Ca2+ imaging, HEK cells expressing AgORco+AgOR48). Settings: Orco + 48, agonist; read-out: Orco + 48 Agonist EC50.
T1 construct: expressed in transfected cells
T1 sequence (Q7QCC7 1-478): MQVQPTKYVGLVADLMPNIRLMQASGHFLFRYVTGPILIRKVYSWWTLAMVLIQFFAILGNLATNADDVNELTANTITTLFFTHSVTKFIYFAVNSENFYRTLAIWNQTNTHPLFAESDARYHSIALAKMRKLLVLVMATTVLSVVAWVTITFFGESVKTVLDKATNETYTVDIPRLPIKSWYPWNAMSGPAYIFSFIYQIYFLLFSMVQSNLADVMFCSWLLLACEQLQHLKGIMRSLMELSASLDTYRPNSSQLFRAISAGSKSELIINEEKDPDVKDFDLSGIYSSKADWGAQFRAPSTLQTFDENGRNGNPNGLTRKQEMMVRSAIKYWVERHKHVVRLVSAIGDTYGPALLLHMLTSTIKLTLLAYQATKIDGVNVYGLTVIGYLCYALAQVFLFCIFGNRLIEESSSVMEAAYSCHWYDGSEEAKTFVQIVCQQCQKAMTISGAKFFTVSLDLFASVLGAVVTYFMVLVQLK
Format: cell-based
Text: (§1) For transient transfections, ORs were cloned into pCl (Promega) and transfected into Flp-In™ T-REx™293 cell lines (Invitrogen) with Fu GENE6 (Roche). For the creation of stable cell lines, a cell culture expression vector capable of expressing Orco in conjunction with a conventional OR, pcDNA5/FRT/TO (Invitrogen) was modified to create two individual expression cassettes each under the control of a separate CMV/Tet02 promoter and a BGH poly-adenylation signal. Cells (as above) were transfected with the modified pcDNA5 plasmid along with POG44 (a Flp recombinase expression plasmid) to facilitate site-specific recombination. Stable cell lines were selected using Hygromycin B (Invitrogen). Cells were maintained in DMEM (Invitrogen) supplemented with 10% Tetracycline-free FBS (HyClone) and 15 ng/ml Blasticidin. For fluorometric Ca2+ measurements, stable lines expressing ORs of interest were seeded at 20,000 cells/well in black wall, poly-lysine coated 384-well cell culture plates (Greiner) and treated with […] tetracycline (Sigma) overnight to induce OR expression. Cells were dye-loaded with 1.8 uM Fluo-4 AM (Molecular Probes), 2.5 mM Probenecid (Molecular Probes) in assay buffer (20 mM HEPES, IX HBSS) for 45 minutes at 37° C. in 5% CO2 prior to each assay. Ca^2+ mobilization was assayed in an FDSS6000 (Hamamatsu). Baseline readings were taken for 20 s before automated addition of compound previously diluted in DMSO and assay buffer. Ratios were described as Maximum/Minimum response and each response was normalized to the maximum responder.
The ability of VUAA1 and its analogs to agonize representative ORco proteins from dipteran (Anopheles gambiae, AgORco), lepidopteran (Heliothis virescens, HvORco) and hymenopteran (Harpegnathos saltator, HsORco) orders was tested. […] Furthermore, the hierarchy of VUAA series potency was the same, irrespective of whether AgORco was co-expressed with AgOR65 or AgOR48 tuning ORs (FIG. 45). Without wishing to be bound by a particular theory, odorant ligands are thought to activate the complex via interaction with the tuning ORx and thereby affect ORco/ORx channel properties. […] These findings indicate VUAA-class OR co-modulators are viable compounds for further development as broad-spectrum insect control strategies, and VUAA4 can provide an advance in the pharmacological profile of VUAA-based compounds.

With `CCCn1c(SCC(=O)Nc2ccc(C(C)C)cc2)nnc1-c1ccncc1` the EC50 was 19 µM.

Same assay, conditions: Orco + 48, agonist; relative to VUAA1

With `C=CCn1c(SCC(=O)Nc2ccc(C(C)C)cc2)nnc1-c1ccncc1` the “Orco + 48 Agonist % value Of VUAA1” value was “<VUAA1”.

Same assay, conditions: Orco + 48, agonist; stated in words relative to VUAA1

For `C=CCn1c(SCC(=O)Nc2ccc(C(C)C)cc2)nnc1-c1ccncc1`, the “Orco + 48 Agonist EC50 (relative to VUAA1)” value was “<VUAA1”.

Same assay, conditions: Orco + 48; comparison with VUAA1 in words

`C=Cc1ccc(NC(=O)CSc2nnc(-c3ccncc3)n2CC)cc1` was tested, and the “Orco + 48 Agonist EC50 (given only relative to VUAA1)” value was “<VUAA1”.

Same assay, conditions: Orco + 48; relative to VUAA1

In the case of `C=Cc1ccc(NC(=O)CSc2nnc(-c3ccncc3)n2CC)cc1`, the “Orco + 48 Agonist % value Of VUAA1” value is reported as “<VUAA1”.

These compounds were tested against T2, AgORco+AgOR10 (Anopheles gambiae, UniProt Q7QCC7) (assay: Fluo-4 Ca2+ imaging, HEK293 cells expressing Orco+AgOR10). Settings: 10 + Orco; potentiator mode.
T2 construct: expressed in transfected cells
T2 sequence (Q7QCC7 1-478): T1 sequence (Q7QCC7 1-478)
Format: cell-based
Set-up: Orco 10 + Orco Angatonist % Reduction / Orco 10 + Orco Agonist % of control: concentration or dose not given beside the values
Text: as §1
As part of an ongoing, cell based calcium imaging screen for novel small-molecule modulators of AgORs that might disrupt olfactory-driven mosquito behaviors (Rinker et al manuscript in preparation), the inventors identified a number of compounds that activated AgOR10+AgORco-expressing human embryonic kidney (HEK293) cells. One of these compounds, (FIG. 3 A) denoted here as VUAA1, elicited activity consistent with allosteric agonism and was pursued for its novel properties. The identity of VUAA1 was verified using high-resolution mass spectrometry (HRMS) as well as ^1H and ^13C NMR. […] As AgORco was the common element among these functional responses, the inventors postulated that VUAA1 was a potential AgORco agonist.

First: CCCn1c(SCC(=O)NCCc2ccccc2)nnc1-c1cccnc1
Second: CCn1c(SCCC(=O)O)nnc1-c1cccnc1
The “Orco 10 + Orco Potentiator % increase” value of the first is lower: 12.58% for the first, 15.74% for the second.

For `CCc1cccc(CC)c1NC(=O)CSc1nnc(C(C)C)n1CC`, the “Orco 10 + Orco Potentiator % increase” value was 13.90%.

Same assay, conditions: Orco 10 + Orco, antagonist mode

First: C=CCn1c(SCc2cccc3ccccc23)nnc1-c1cccnc1
Second: Clc1ccccc1CSc1nnc(-c2cccnc2)n1Cc1ccco1
The “Orco 10 + Orco Angatonist % Reduction” value of the first is lower: 13.43% for the first, 33.76% for the second.

First: CCn1c(CNC(=O)COc2ccc(C(C)C)cc2)nnc1SCC(=O)Nc1ccccc1C(C)C
Second: CCn1c(CNC(=O)COc2ccc(C(C)C)cc2)nnc1SCC(=O)Nc1ccccc1F
The “Orco 10 + Orco Angatonist % Reduction” value of the first is higher: 44.74% for the first, 11.35% for the second.

First: CC(C)c1ccccc1-n1c(SCc2cc(=O)oc3ccc4ccccc4c23)nnc1-c1cccnc1
Second: CCOc1ccc(-n2c(SCc3cc(=O)oc4cc(C)ccc34)nnc2-c2cccnc2)cc1
The “Orco 10 + Orco Angatonist % Reduction” value of the first is higher: 26.15% for the first, 12.48% for the second.

First: CCOc1ccccc1-n1c(SCC(=O)N2CCCc3ccccc32)nnc1-c1cccnc1
Second: Cc1ccc(-n2c(SCC(=O)N3CCCc4ccccc43)nnc2-c2cccnc2)c(C)c1
The “Orco 10 + Orco Angatonist % Reduction” value of the first is higher: 29.87% for the first, 26.04% for the second.

Going from `CCn1c(CNc2ccc(F)cc2)nnc1SCC(=O)N1CCCc2ccccc21` to `CCOC(=O)CN(C(=O)CSc1nnc(CNc2ccc(F)cc2)n1CC)c1ccc(F)cc1`, the “Orco 10 + Orco Angatonist % Reduction” value falls from 18.47% to 8.24%.

Going from `CCOc1ccc(-n2c(SCc3cc(=O)oc4cc(C)c(C(C)C)cc34)nnc2-c2cccnc2)cc1` to `Cc1ccc(-n2c(SCC(=O)NCc3ccc4c(c3)OCO4)nnc2-c2cccnc2)c(C)c1`, the “Orco 10 + Orco Angatonist % Reduction” value falls from 48.28% to 31.14%.

Going from `CCn1c(CNC(=O)COc2ccc(C(C)C)cc2)nnc1SCC(=O)Nc1cc(F)ccc1C` to `CCn1c(CNC(=O)COc2ccc(C(C)C)cc2)nnc1SCC(=O)Nc1ccccc1`, the “Orco 10 + Orco Angatonist % Reduction” value falls from 31.15% to 13.06%.

First: CCn1c(COc2ccc(OC)cc2)nnc1SCC(=O)Nc1cc(OC)ccc1OC
Second: CCn1c(COc2ccc(C)cc2)nnc1SCC(=O)Nc1cc(OC)ccc1OC
The “Orco 10 + Orco Angatonist % Reduction” value of the first is lower: 7.54% for the first, 59.64% for the second.

Compared with `Clc1ccc(CSc2nnc(-c3cccnc3)n2Cc2ccco2)c(Cl)c1`, `COc1cc(Cl)c(C)cc1CSc1nnc(-c2cccnc2)n1Cc1ccco1` is lower in “Orco 10 + Orco Angatonist % Reduction” value: 49.50% for the first, 28.40% for the second.

Going from `Cc1ccc(Nc2nc(CSc3nnc(-c4cccnc4)n3-c3ccccc3F)cs2)cc1` to `Cc1ccc(Nc2nc(CSc3nnc(-c4cccnc4)n3-c3ccccc3C)cs2)cc1`, the “Orco 10 + Orco Angatonist % Reduction” value rises from 47.91% to 52.47%.

Compared with `CCN(CC)S(=O)(=O)c1ccc(-c2nnc(SCC(=O)N3c4ccccc4CC3C)n2CC)cc1` (centres unmarked), `CCn1c(SCC(=O)N2c3ccccc3CCc3ccccc32)nnc1-c1ccc(OC)cc1` is higher in “Orco 10 + Orco Angatonist % Reduction” value: 31.53% for the first, 41.48% for the second.

Going from `O=C(CSc1nnc(-c2cccnc2)n1Cc1ccco1)N1c2ccccc2Sc2ccccc21` [drawing 490] to `O=C(CSc1nnc(-c2cccnc2)n1Cc1ccco1)c1ccc(Br)cc1`, the “Orco 10 + Orco Angatonist % Reduction” value falls from 46.34% to 7.93%.

First: COc1cc(Cl)c(C)cc1NC(=O)CSc1nnc(-c2cccnc2)n1Cc1ccco1
Second: CCOC(=O)c1c(NC(=O)CSc2nnc(-c3cccnc3)n2Cc2ccco2)sc(C)c1C
The “Orco 10 + Orco Angatonist % Reduction” value of the first is lower: 25.31% for the first, 30.44% for the second.

Compared with `CCOC(=O)c1cccc(NC(=O)CSc2nnc(CNc3ccc(C)cc3)n2CC)c1`, `CCOC(=O)CN(C(=O)CSc1nnc(CNc2ccc(C)cc2C)n1CC)c1ccccc1` is lower in “Orco 10 + Orco Angatonist % Reduction” value: 62.21% for the first, 57.34% for the second.

Going from `CC(C)c1ccccc1-n1c(SCC(=O)N2CCN(c3ccccc3)CC2)nnc1-c1cccnc1` to `O=C(CSc1nnc(-c2cccnc2)n1-c1ccc(SC(F)F)cc1)N1CCCc2ccccc21`, the “Orco 10 + Orco Angatonist % Reduction” value falls from 42.29% to 24.77%.

Compared with `O=C(CSc1nnc(-c2cccnc2)n1Cc1ccco1)N1c2ccccc2Sc2ccccc21` [drawing 497], `Fc1ccc(CSc2nnc(-c3cccnc3)n2Cc2ccco2)cc1` is lower in “Orco 10 + Orco Angatonist % Reduction” value: 53.70% for the first, 16.64% for the second.

Going from `CCn1c(COc2cccc(OC)c2)nnc1SCC(=O)Nc1ccccc1C(=O)OC` to `CCn1c(COc2ccccc2)nnc1SCC(=O)Nc1cc(OC)ccc1OC`, the “Orco 10 + Orco Angatonist % Reduction” value falls from 72.23% to 38.62%.

First: CCc1ccc(NC(=O)CSc2nnc(-c3cccs3)n2CC)cc1
Second: CCn1c(SCC(=O)Nc2ccc(N(C)C)cc2)nnc1-c1cccc(C)c1
The “Orco 10 + Orco Angatonist % Reduction” value of the first is higher: 32.93% for the first, 29.54% for the second.

First: CCn1c(SCC(=O)N2c3ccccc3CCc3ccccc32)nnc1-c1ccco1
Second: CCn1c(SCC(=O)Nc2ccc(OCc3ccccc3)cc2)nnc1-c1ccco1
The “Orco 10 + Orco Angatonist % Reduction” value of the first is lower: 13.40% for the first, 28.44% for the second.

Going from `CCOC(=O)CN(C(=O)CSc1nnc(COc2ccc(OC)cc2)n1CC)c1ccccc1` to `CCn1c(COc2cccc(OC)c2)nnc1SCC(=O)Nc1cc(OC)ccc1OC`, the “Orco 10 + Orco Angatonist % Reduction” value falls from 49.09% to 30.79%.

Compared with `CCn1c(SCC(=O)Nc2ccc(OC)cc2)nnc1-c1ccc2[nH]c(C)c(C)c2c1`, `CCn1c(SCC(=O)Nc2ccccc2C(=O)OC)nnc1-c1cccc(C)c1` is lower in “Orco 10 + Orco Angatonist % Reduction” value: 24.94% for the first, 16.03% for the second.

Going from `CCn1c(CNC(=O)c2ccco2)nnc1SCC(=O)Nc1cc(C(F)(F)F)ccc1Cl` to `Cc1ccc(-n2c(SCC(=O)NCc3ccco3)nnc2-c2cccnc2)c(C)c1`, the “Orco 10 + Orco Angatonist % Reduction” value falls from 15.97% to 15.51%.

Compared with `c1ccc(CSc2nnc(-c3cccnc3)n2Cc2ccccc2)cc1`, `N#Cc1ccc(CSc2nnc(-c3cccnc3)n2-c2ccccc2)cc1` is higher in “Orco 10 + Orco Angatonist % Reduction” value: 16.73% for the first, 20.08% for the second.

First: CCn1c(SCC(=O)Nc2ccc3c(c2)OCCO3)nnc1-c1c[nH]c2ccccc12
Second: Cc1ccccc1-n1c(SCc2csc(Nc3ccccc3)n2)nnc1-c1cccnc1
The “Orco 10 + Orco Angatonist % Reduction” value of the first is lower: 17.90% for the first, 56.98% for the second.

Same assay, conditions: Orco 10 + Orco; potentiator mode

Going from `C=CCn1c(SCc2nc(N)nc(N(C)C)n2)nnc1-c1cccnc1` to `Cc1ccccc1-n1c(SC(C)C(N)=O)nnc1-c1cccnc1` (centres unmarked), the “Orco 10 + Orco Potentiator % increase” value falls from 17.15% to 16.98%.

Compared with `O=C(CSc1nnc(-c2cccnc2)n1-c1ccccc1)c1c[nH]c2ccccc12`, `O=C(CSc1nnc(-c2cccnc2)n1-c1ccccc1)NCc1ccc2c(c1)OCO2` is higher in “Orco 10 + Orco Potentiator % increase” value: 13.63% for the first, 16.29% for the second.

Compared with `CCn1c(COc2ccc3c(c2)CCCC3)nnc1SCC(=O)Nc1ccc(C(=O)OC)cc1`, `CCn1c(SCC(=O)Nc2cc(C)ccc2C)nnc1-c1cnccn1` is higher in “Orco 10 + Orco Potentiator % increase” value: 18.19% for the first, 21.48% for the second.
